≈ marks a conversion by molar mass, not a printed value.
What was measured:
[1] = target: T1, Suppressor of tumorigenicity 14 protein (Homo sapiens, UniProt Q9Y5Y6); experiment: Inhibition of human recombinant matripase catalytic domain using H2N(EEdansyl)GKQLRVVNGG (KDabcyl)-NH2 as substrate by fluorometric analysis
T1 sequence (Q9Y5Y6 whole entry): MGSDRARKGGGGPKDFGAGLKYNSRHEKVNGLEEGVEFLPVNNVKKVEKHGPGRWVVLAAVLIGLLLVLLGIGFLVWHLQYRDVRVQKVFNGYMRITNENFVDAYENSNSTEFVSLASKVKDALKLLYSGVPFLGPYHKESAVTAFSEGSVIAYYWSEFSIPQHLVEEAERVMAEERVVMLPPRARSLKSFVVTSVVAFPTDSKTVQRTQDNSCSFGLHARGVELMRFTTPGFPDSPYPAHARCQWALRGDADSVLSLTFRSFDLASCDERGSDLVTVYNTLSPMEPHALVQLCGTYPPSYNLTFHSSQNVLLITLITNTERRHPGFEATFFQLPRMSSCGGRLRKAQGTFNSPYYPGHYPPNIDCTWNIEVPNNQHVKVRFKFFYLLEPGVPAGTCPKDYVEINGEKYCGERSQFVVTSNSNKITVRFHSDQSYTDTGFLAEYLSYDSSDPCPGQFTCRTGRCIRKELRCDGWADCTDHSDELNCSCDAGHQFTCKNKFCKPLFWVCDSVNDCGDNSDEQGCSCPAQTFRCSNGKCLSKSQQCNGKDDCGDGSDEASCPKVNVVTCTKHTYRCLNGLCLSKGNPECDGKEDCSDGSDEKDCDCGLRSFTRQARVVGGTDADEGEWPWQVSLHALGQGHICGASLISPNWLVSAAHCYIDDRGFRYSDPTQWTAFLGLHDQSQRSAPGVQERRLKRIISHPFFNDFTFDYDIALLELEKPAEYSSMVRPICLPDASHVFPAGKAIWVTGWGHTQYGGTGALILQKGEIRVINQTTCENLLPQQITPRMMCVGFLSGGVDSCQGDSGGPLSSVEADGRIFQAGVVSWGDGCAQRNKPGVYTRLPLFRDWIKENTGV

[2] = target: Serine protease hepsin (Homo sapiens, UniProt P05981); experiment: Inhibition of human recombinant hepsin using H2N(EEdansyl)GKQLRVVNGG (KDabcyl)-NH2 as substrate by fluorometric analysis
Serine protease hepsin, sequence (P05981 1-162 limits assumed): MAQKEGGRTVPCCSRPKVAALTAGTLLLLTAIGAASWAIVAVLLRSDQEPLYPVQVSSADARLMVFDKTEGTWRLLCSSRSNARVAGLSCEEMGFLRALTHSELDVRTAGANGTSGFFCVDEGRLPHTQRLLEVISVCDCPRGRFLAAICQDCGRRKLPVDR
Serine protease hepsin, sequence (P05981 163-417 limits assumed): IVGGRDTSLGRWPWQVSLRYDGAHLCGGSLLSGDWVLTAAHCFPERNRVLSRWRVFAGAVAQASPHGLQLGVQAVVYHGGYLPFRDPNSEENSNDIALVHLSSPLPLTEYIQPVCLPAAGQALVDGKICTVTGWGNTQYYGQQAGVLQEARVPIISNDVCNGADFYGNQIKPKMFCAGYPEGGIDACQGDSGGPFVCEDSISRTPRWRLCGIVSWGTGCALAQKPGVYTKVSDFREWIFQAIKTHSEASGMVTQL

[3] = target: T2, Hepatocyte growth factor activator serine protease (Homo sapiens, UniProt Q04756); experiment: Inhibition of human recombinant hepatocyte growth factor activator using H2N(EEdansyl)GKQLRVVNGG (KDabcyl)-NH2 as substrate by fluorometric analysis; type: single protein
T2 sequence (Q04756 whole entry): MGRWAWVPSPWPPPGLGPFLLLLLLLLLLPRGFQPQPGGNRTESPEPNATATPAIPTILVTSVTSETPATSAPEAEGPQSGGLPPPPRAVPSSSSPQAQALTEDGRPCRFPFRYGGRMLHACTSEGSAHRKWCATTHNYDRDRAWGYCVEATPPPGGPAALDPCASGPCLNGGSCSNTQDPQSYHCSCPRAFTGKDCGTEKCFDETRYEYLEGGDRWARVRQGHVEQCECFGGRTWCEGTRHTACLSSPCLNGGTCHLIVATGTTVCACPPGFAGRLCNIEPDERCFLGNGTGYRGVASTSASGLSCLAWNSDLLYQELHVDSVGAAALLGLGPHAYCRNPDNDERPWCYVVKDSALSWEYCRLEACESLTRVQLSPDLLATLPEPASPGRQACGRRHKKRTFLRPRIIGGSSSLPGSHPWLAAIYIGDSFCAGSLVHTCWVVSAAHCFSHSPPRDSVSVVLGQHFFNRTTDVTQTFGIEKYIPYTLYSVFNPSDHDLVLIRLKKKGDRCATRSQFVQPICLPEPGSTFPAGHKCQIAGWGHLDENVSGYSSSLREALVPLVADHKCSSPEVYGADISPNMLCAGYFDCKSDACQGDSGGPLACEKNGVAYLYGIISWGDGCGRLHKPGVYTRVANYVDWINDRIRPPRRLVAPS

[4] = target: Trypsin (Homo sapiens, UniProt P07477+P07478+P35030); experiment: Inhibition of human recombinant trypsin using H2N(EEdansyl)GKQLRVVNGG (KDabcyl)-NH2 as substrate by fluorometric analysis; type: protein assay
[5] = target: Prothrombin (Homo sapiens, UniProt P00734); experiment: Inhibition of human recombinant thrombin using H2N(EEdansyl)GKQLRVVNGG (KDabcyl)-NH2 as substrate by fluorometric analysis
[6] = target: Coagulation factor X (Homo sapiens, UniProt P00742); experiment: Inhibition of human recombinant factor 10a using H2N(EEdansyl)GKQLRVVNGG (KDabcyl)-NH2 as substrate by fluorometric analysis
Coagulation factor X, sequence (P00742 41-179 limits assumed): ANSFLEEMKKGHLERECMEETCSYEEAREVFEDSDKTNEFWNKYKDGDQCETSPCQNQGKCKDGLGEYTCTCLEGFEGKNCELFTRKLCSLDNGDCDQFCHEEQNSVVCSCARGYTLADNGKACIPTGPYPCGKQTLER
Coagulation factor X, sequence (P00742 235-488 limits assumed): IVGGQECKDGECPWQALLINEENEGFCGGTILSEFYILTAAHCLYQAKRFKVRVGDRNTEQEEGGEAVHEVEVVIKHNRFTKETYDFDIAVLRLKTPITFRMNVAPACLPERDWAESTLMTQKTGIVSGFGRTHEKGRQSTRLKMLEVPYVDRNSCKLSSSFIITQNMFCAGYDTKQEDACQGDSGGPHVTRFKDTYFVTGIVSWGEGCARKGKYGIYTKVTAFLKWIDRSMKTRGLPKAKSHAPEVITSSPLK

[7] = target: Hepatocyte growth factor activator/Serine protease hepsin/Suppressor of tumorigenicity 14 protein (Homo sapiens) (UniProt Q9Y5Y6+P05981+Q04756); experiment: Inhibition of matripase/hepsin/hepatocyte growth factor activator-mediated HGF activation in human 18Co fibroblasts assessed as scattering of human DU145 cells after 24 hrs by crystal violet staining method; type: cell-based
Hepatocyte growth factor activator/Serine protease hepsin/Suppressor of tumorigenicity 14 protein (Homo sapiens), sequence (P05981 whole entry, looked up, one chain of several): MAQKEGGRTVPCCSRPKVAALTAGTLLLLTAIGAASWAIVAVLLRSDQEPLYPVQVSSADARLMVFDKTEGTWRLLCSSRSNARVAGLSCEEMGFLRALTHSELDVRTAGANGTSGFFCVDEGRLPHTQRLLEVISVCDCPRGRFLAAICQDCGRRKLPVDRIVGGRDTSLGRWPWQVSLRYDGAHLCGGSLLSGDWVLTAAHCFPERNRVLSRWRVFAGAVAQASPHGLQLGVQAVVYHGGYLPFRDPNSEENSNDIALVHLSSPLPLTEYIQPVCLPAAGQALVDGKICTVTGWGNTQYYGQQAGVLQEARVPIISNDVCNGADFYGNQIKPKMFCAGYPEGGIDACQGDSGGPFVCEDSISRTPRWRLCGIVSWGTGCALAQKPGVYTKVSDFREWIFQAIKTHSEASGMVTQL

[8] = Kinetic solubility of the compound at pH 7.4; type: physicochemical; conditions: buffer, read-out: Kinetic_solubility
[9] = Lipophilicity, logD of the compound at pH 7.4 by shake-flask method; type: physicochemical; conditions: buffer
[10] = Half life in human liver microsomes by LC/MS analysis; type: ADME
[11] = Half life in mouse liver microsomes by LC/MS analysis; type: ADME
[12] = Half life in mouse at 1 mg/kg, iv; type: ADME, organism-based; conditions: in vivo
[13] = Clearance in mouse at 1 mg/kg, iv; type: ADME, organism-based; conditions: in vivo
[14] = Volume of distribution in mouse at 1 mg/kg, iv; type: ADME, organism-based; conditions: in vivo
[15] = AUC in mouse at 1 mg/kg, iv; type: ADME, organism-based; conditions: in vivo
[16] = Cmax in mouse at 5 mg/kg, po; type: ADME, organism-based; set-up: dose 5 mg/kg, route oral; conditions: in vivo
[17] = AUC in mouse at 5 mg/kg, po; type: ADME, organism-based; conditions: in vivo
[18] = Oral bioavailability in mouse at 5 mg/kg; type: ADME, organism-based; conditions: in vivo

Row | Structure (SMILES) | Ki [1] [µM] | Ki [2] [µM] | Ki [3] [µM] | Ki [4] [µM] | Ki [5] [µM] | Ki [6] [µM] | inhibition [7] | solubility kinetic [8] [µM] | logD [9] | half-life [10] [h] | half-life [11] [h] | half-life [12] [h] | clearance [13] [mL/min/kg] | Vd [14] [L/kg] | AUC [15] [ng·h/mL] | Cmax [16] [ng/mL] | AUC [17] [ng·h/mL] | bioavailability [18] [%]
1 | CC1CN(Cc2cccc(C(=N)N)c2)C(=O)N(C2CCN(Cc3ccccc3)CC2)C1 (stereo unspecified) | 13.5 | 15.1 | > 100 | 4.8 | > 100 | 49.4 |  |  |  |  |  |  |  |  |  |  |  | 
2 | CC1CN(c2cccc(C(=N)N)c2)C(=O)N(C2CCN(Cc3ccccc3)CC2)C1 (stereo unspecified) | 0.83 | 3.4 | 9.8 | 0.78 | 35.9 | 0.24 |  |  |  |  |  |  |  |  |  |  |  | 
3 | N=C(N)c1cccc(N2CC(CO)CN(CC3CCN(Cc4ccccc4)CC3)C2=O)c1 (stereo unspecified) | 0.58 | 0.69 | 0.23 | 0.15 | 7.4 | 0.25 | Dose-dependent effect | 47 (≈ 20.5 µg/mL) | < 2 |  |  |  |  |  |  |  |  | 
4 | CC1CN(CCC2CCN(Cc3ccccc3)CC2)C(=O)N(c2cccc(C(=N)N)c2)C1 (stereo unspecified) | 0.51 | 2.12 | 1.11 | 2.77 | > 100 | 0.4 |  |  |  |  |  |  |  |  |  |  |  | 
5 | N=C(N)c1cccc(N2CC(CNC(=O)Cc3ccccc3)CN(CC3CCN(Cc4ccccc4)CC3)C2=O)c1 (stereo unspecified) | 1.51 | 0.31 | 1.08 | 0.59 | > 100 | 1.55 |  |  |  |  |  |  |  |  |  |  |  | 
6 | N=C(N)c1cccc(N2CC(OCc3ccccc3)CN(CC3CCN(Cc4ccccc4)CC3)C2=O)c1 (stereo unspecified) | 1.54 | 0.76 | 1.92 | 0.55 | 29.7 | 0.92 |  | 47 (≈ 24 µg/mL) | < 2 |  |  |  |  |  |  |  |  | 
7 | COCC1CN(CC2CCN(Cc3ccccc3)CC2)C(=O)N(c2cccc(C(=N)N)c2)C1 (stereo unspecified) | 0.85 | 0.92 | 0.16 | 0.21 | 8.1 | 0.2 | Dose-dependent effect | 47 (≈ 21.1 µg/mL) | < 2 |  |  |  |  |  |  |  |  | 
8 | N=C(N)c1cccc(N2CC(NC(=O)Cc3ccccc3)CN(CC3CCN(Cc4ccccc4)CC3)C2=O)c1 (stereo unspecified) | 1.28 | 1.12 | 0.38 | 0.5 | 42.3 | 0.74 |  |  |  |  |  |  |  |  |  |  |  | 
9 | N=C(N)c1cccc(N2CC(NS(=O)(=O)Cc3ccccc3)CN(CC3CCN(Cc4ccccc4)CC3)C2=O)c1 (stereo unspecified) | 0.35 | 0.53 | 0.44 | 0.31 | 13.4 | 0.66 |  |  |  |  |  |  |  |  |  |  |  | 
10 | COC1CN(CC2CCN(Cc3ccccc3)CC2)C(=O)N(c2cccc(C(=N)N)c2)C1 (stereo unspecified) | 0.81 | 0.76 | 2.49 | 0.76 | > 100 | 1.23 |  | 47 (≈ 20.5 µg/mL) | < 2 |  |  |  |  |  |  |  |  | 
11 | N=C(N)c1cccc(N2CC(COCc3ccccc3)CN(CC3CCN(Cc4ccccc4)CC3)C2=O)c1 (stereo unspecified) | 0.85 | 0.56 | 0.43 | 0.1 | 2.13 | 0.18 |  | 47 (≈ 24.7 µg/mL) | < 2 |  |  |  |  |  |  |  |  | 
12 | CC1CN(CC2CCN(Cc3ccccc3)CC2)C(=O)N(c2cccc(C(=N)N)c2)C1 (stereo unspecified) | 0.53 | 0.54 | 0.48 | 0.43 | 11.6 | 0.38 | Dose-dependent effect | 91.6 (≈ 38.4 µg/mL) | -0.49 | 2.7 | 4.93 | 5.8 | 38 | 4.49 | 414 | 4.45 | 3.31 | < 1
13 | N=C(N)c1cccc(N2CC(NS(=O)(=O)c3ccccc3)CN(CC3CCN(Cc4ccccc4)CC3)C2=O)c1 (stereo unspecified) | 0.52 | 0.67 | 0.52 | 0.34 | 17 | 0.61 |  |  |  |  |  |  |  |  |  |  |  | 
14 | N=C(N)c1cccc(N2CC(O)CN(CC3CCN(Cc4ccccc4)CC3)C2=O)c1 (stereo unspecified) | 0.28 | 0.21 | 0.88 | 0.39 | 21.9 | 0.85 | Dose-dependent effect | 47 (≈ 19.8 µg/mL) | < 2 |  |  |  |  |  |  |  |  | 
15 | CS(=O)(=O)NC1CN(CC2CCN(Cc3ccccc3)CC2)C(=O)N(c2cccc(C(=N)N)c2)C1 (stereo unspecified) | 0.33 | 0.72 | 0.35 | 0.42 | > 100 | 0.51 |  |  |  |  |  |  |  |  |  |  |  | 
16 | N=C(N)c1cccc(NC(=O)NC2CCN(Cc3ccccc3)CC2)c1 | 40.5 | 53.1 | 54.6 | 5.3 | > 100 | 5.4 |  |  |  |  |  |  |  |  |  |  |  | 
17 | CC1CN(c2ccc(C(=N)N)cc2)C(=O)N(C2CCN(Cc3ccccc3)CC2)C1 (stereo unspecified) | 48.9 | 61.2 | 46.5 | 35.4 | > 100 | 25.5 |  |  |  |  |  |  |  |  |  |  |  | 
18 | CC1CN(Cc2ccc(C(=N)N)cc2)C(=O)N(C2CCN(Cc3ccccc3)CC2)C1 (stereo unspecified) | 15.4 | 20.8 | 39.6 | 4.8 | 82.2 | 22.8 |  |  |  |  |  |  |  |  |  |  |  | 
19 | N=C(N)c1cccc(N2CC(CNC(=O)c3ccccc3)CN(CC3CCN(Cc4ccccc4)CC3)C2=O)c1 (stereo unspecified) | 0.47 | 1.1 | 1.1 | 0.33 | > 100 | 0.75 |  |  |  |  |  |  |  |  |  |  |  | 
